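Exposure lasted 48 hours, with cells grown in 96-well plates and compounds tested at five concentrations. The concentration for full growth arrest is given as TGI.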
Key:
Test in all cases: growth of human tumour cells (NCI), 48 h
ACHN renal = test system: ACHN renal
LOX IMVI melanoma = test system: LOX IMVI melanoma
DLD-1 colon = test system: DLD-1 colon
MOLT-4 leukemia = test system: MOLT-4 leukemia
SNB-78 CNS = test system: SNB-78 CNS
SF-268 CNS = test system: SF-268 CNS
M14 melanoma = test system: M14 melanoma
MALME-3M melanoma = test system: MALME-3M melanoma
OVCAR-3 ovarian = test system: OVCAR-3 ovarian
K-562 leukemia = test system: K-562 leukemia
SNB-19 CNS = test system: SNB-19 CNS
786-0 renal = test system: 786-0 renal
A549 NSCLC = test system: A549 NSCLC
EKVX NSCLC = test system: EKVX NSCLC
CAKI-1 renal = test system: CAKI-1 renal
NCI-H460 lung = test system: NCI-H460 lung
SK-OV-3 ovarian = test system: SK-OV-3 ovarian
M19-MEL melanoma = test system: M19-MEL melanoma
COLO 205 colon = test system: COLO 205 colon
HT29 colon = test system: HT29 colon
HOP-18 NSCLC = test system: HOP-18 NSCLC
U251 CNS = test system: U251 CNS
HCT-116 colon = test system: HCT-116 colon
HOP-62 NSCLC = test system: HOP-62 NSCLC
XF 498 CNS = test system: XF 498 CNS
RXF 393 renal = test system: RXF 393 renal
LXFL 529 NSCLC = test system: LXFL 529 NSCLC
UACC-62 melanoma = test system: UACC-62 melanoma
OVCAR-4 ovarian = test system: OVCAR-4 ovarian
SK-MEL-28 melanoma = test system: SK-MEL-28 melanoma
HCC-2998 colon = test system: HCC-2998 colon
HL-60(TB) leukemia = test system: HL-60(TB) leukemia
IGROV1 ovarian = test system: IGROV1 ovarian
DMS 273 small cell lung = test system: DMS 273 small cell lung
SK-MEL-2 melanoma = test system: SK-MEL-2 melanoma
OVCAR-5 ovarian = test system: OVCAR-5 ovarian
RXF-631 renal = test system: RXF-631 renal
HCT-15 colon = test system: HCT-15 colon
NCI-H226 lung = test system: NCI-H226 lung
SF-295 CNS = test system: SF-295 CNS
SK-MEL-5 melanoma = test system: SK-MEL-5 melanoma
RPMI-8226 leukemia = test system: RPMI-8226 leukemia
SN12C renal = test system: SN12C renal
UO-31 renal = test system: UO-31 renal
UACC-257 melanoma = test system: UACC-257 melanoma
CCRF-CEM leukemia = test system: CCRF-CEM leukemia
HOP-92 NSCLC = test system: HOP-92 NSCLC
NCI-H23 lung = test system: NCI-H23 lung
TK-10 renal = test system: TK-10 renal
SF-539 CNS = test system: SF-539 CNS
OVCAR-8 ovarian = test system: OVCAR-8 ovarian
SR leukemia = test system: SR leukemia
NCI-H522 lung = test system: NCI-H522 lung
A498 renal = test system: A498 renal
KM12 colon = test system: KM12 colon
KM20L2 colon = test system: KM20L2 colon
SNB-75 CNS = test system: SNB-75 CNS
SW-620 colon = test system: SW-620 colon
DMS 114 small cell lung = test system: DMS 114 small cell lung

`O=C1CS(=O)c2ccccc2N1` (configuration not stated) showed a TGI (ACHN renal) greater than 100 µM, a TGI (LOX IMVI melanoma) greater than 100 µM and a TGI (DLD-1 colon) greater than 100 µM. The TGI (MOLT-4 leukemia) was greater than 100 µM, the TGI (SNB-78 CNS) was greater than 100 µM and the TGI (SF-268 CNS) was greater than 100 µM. For the same compound, the TGI (M14 melanoma) was greater than 100 µM, the TGI (MALME-3M melanoma) was greater than 100 µM and the TGI (OVCAR-3 ovarian) was greater than 100 µM. It also gave a TGI (K-562 leukemia) greater than 100 µM, a TGI (SNB-19 CNS) greater than 100 µM and a TGI (786-0 renal) greater than 100 µM. It also gave a TGI (A549 NSCLC) greater than 100 µM, a TGI (EKVX NSCLC) greater than 100 µM and a TGI (CAKI-1 renal) greater than 100 µM. It also gave a TGI (NCI-H460 lung) greater than 100 µM, a TGI (SK-OV-3 ovarian) greater than 100 µM and a TGI (M19-MEL melanoma) greater than 100 µM. The TGI (COLO 205 colon) was greater than 100 µM, the TGI (HT29 colon) was greater than 100 µM and the TGI (HOP-18 NSCLC) was greater than 100 µM. The TGI (U251 CNS) was greater than 100 µM, the TGI (HCT-116 colon) was greater than 100 µM and the TGI (HOP-62 NSCLC) was greater than 100 µM. For the same compound, the TGI (XF 498 CNS) was greater than 100 µM, the TGI (RXF 393 renal) was greater than 100 µM and the TGI (LXFL 529 NSCLC) was greater than 100 µM. It also gave a TGI (UACC-62 melanoma) greater than 100 µM, a TGI (OVCAR-4 ovarian) greater than 100 µM and a TGI (SK-MEL-28 melanoma) greater than 100 µM. For the same compound, the TGI (HCC-2998 colon) was greater than 100 µM, the TGI (HL-60(TB) leukemia) was greater than 100 µM and the TGI (IGROV1 ovarian) was greater than 100 µM. For the same compound, the TGI (DMS 273 small cell lung) was 33.9 µM, the TGI (SK-MEL-2 melanoma) was greater than 100 µM and the TGI (OVCAR-5 ovarian) was greater than 100 µM. It also gave a TGI (RXF-631 renal) greater than 100 µM, a TGI (HCT-15 colon) greater than 100 µM and a TGI (NCI-H226 lung) greater than 100 µM. The TGI (SF-295 CNS) was greater than 100 µM, the TGI (SK-MEL-5 melanoma) was greater than 100 µM and the TGI (RPMI-8226 leukemia) was greater than 100 µM. The TGI (SN12C renal) was greater than 100 µM, the TGI (UO-31 renal) was greater than 100 µM and the TGI (UACC-257 melanoma) was greater than 100 µM. For the same compound, the TGI (CCRF-CEM leukemia) was greater than 100 µM, the TGI (HOP-92 NSCLC) was greater than 100 µM and the TGI (NCI-H23 lung) was greater than 100 µM. For the same compound, the TGI (TK-10 renal) was greater than 100 µM, the TGI (SF-539 CNS) was greater than 100 µM and the TGI (OVCAR-8 ovarian) was greater than 100 µM. For the same compound, the TGI (SR leukemia) was greater than 100 µM, the TGI (NCI-H522 lung) was greater than 100 µM and the TGI (A498 renal) was greater than 100 µM. The TGI (KM12 colon) was greater than 100 µM, the TGI (KM20L2 colon) was greater than 100 µM and the TGI (SNB-75 CNS) was greater than 100 µM.

For `CCc1cc2c(Nc3ccccc3)c3c(nc2s1)CCCC3`, the TGI (ACHN renal) was greater than 100 µM, the TGI (LOX IMVI melanoma) was 42 µM and the TGI (DLD-1 colon) was greater than 100 µM. The TGI (MOLT-4 leukemia) was greater than 100 µM, the TGI (SNB-78 CNS) was greater than 100 µM and the TGI (SF-268 CNS) was greater than 100 µM. The TGI (M14 melanoma) was greater than 100 µM, the TGI (MALME-3M melanoma) was greater than 100 µM and the TGI (OVCAR-3 ovarian) was greater than 100 µM. The TGI (K-562 leukemia) was greater than 100 µM, the TGI (SW-620 colon) was greater than 100 µM and the TGI (SNB-19 CNS) was greater than 100 µM. It also gave a TGI (786-0 renal) greater than 100 µM, a TGI (A549 NSCLC) greater than 100 µM and a TGI (EKVX NSCLC) greater than 100 µM. It also gave a TGI (NCI-H460 lung) greater than 100 µM, a TGI (SK-OV-3 ovarian) greater than 100 µM and a TGI (M19-MEL melanoma) greater than 100 µM. The TGI (COLO 205 colon) was greater than 100 µM, the TGI (HOP-18 NSCLC) was greater than 100 µM and the TGI (U251 CNS) was greater than 100 µM. For the same compound, the TGI (HCT-116 colon) was greater than 100 µM, the TGI (HOP-62 NSCLC) was greater than 100 µM and the TGI (XF 498 CNS) was 85.1 µM. It also gave a TGI (RXF 393 renal) greater than 100 µM, a TGI (LXFL 529 NSCLC) greater than 100 µM and a TGI (UACC-62 melanoma) greater than 100 µM. The TGI (OVCAR-4 ovarian) was greater than 100 µM, the TGI (SK-MEL-28 melanoma) was greater than 100 µM and the TGI (HCC-2998 colon) was greater than 100 µM. The TGI (HL-60(TB) leukemia) was greater than 100 µM, the TGI (IGROV1 ovarian) was greater than 100 µM and the TGI (DMS 273 small cell lung) was greater than 100 µM. The TGI (SK-MEL-2 melanoma) was greater than 100 µM, the TGI (OVCAR-5 ovarian) was greater than 100 µM and the TGI (RXF-631 renal) was greater than 100 µM. It also gave a TGI (HCT-15 colon) greater than 100 µM, a TGI (SF-295 CNS) greater than 100 µM and a TGI (SK-MEL-5 melanoma) greater than 100 µM. The TGI (RPMI-8226 leukemia) was 87 µM, the TGI (SN12C renal) was greater than 100 µM and the TGI (UO-31 renal) was greater than 100 µM. It also gave a TGI (UACC-257 melanoma) greater than 100 µM, a TGI (CCRF-CEM leukemia) greater than 100 µM and a TGI (HOP-92 NSCLC) greater than 100 µM. It also gave a TGI (TK-10 renal) greater than 100 µM, a TGI (SF-539 CNS) greater than 100 µM and a TGI (DMS 114 small cell lung) greater than 100 µM. The TGI (OVCAR-8 ovarian) was greater than 100 µM, the TGI (SR leukemia) was 47.2 µM and the TGI (A498 renal) was greater than 100 µM. For the same compound, the TGI (KM12 colon) was greater than 100 µM, the TGI (KM20L2 colon) was greater than 100 µM and the TGI (SNB-75 CNS) was 39.1 µM.

With `COC(=O)/C=C(C)/C=C/c1c(C)c(C(C)=O)c(C)n1C` the TGI (ACHN renal) was greater than 100 µM, the TGI (LOX IMVI melanoma) was greater than 100 µM and the TGI (DLD-1 colon) was greater than 100 µM. The TGI (MOLT-4 leukemia) was greater than 100 µM, the TGI (SNB-78 CNS) was greater than 100 µM and the TGI (SF-268 CNS) was greater than 100 µM. It also gave a TGI (M14 melanoma) greater than 100 µM, a TGI (MALME-3M melanoma) greater than 100 µM and a TGI (OVCAR-3 ovarian) greater than 100 µM. The TGI (K-562 leukemia) was greater than 100 µM, the TGI (SW-620 colon) was greater than 100 µM and the TGI (SNB-19 CNS) was greater than 100 µM. The TGI (786-0 renal) was greater than 100 µM, the TGI (A549 NSCLC) was greater than 100 µM and the TGI (EKVX NSCLC) was greater than 100 µM. It also gave a TGI (CAKI-1 renal) greater than 100 µM, a TGI (SK-OV-3 ovarian) greater than 100 µM and a TGI (M19-MEL melanoma) greater than 100 µM. It also gave a TGI (COLO 205 colon) greater than 100 µM, a TGI (HT29 colon) greater than 100 µM and a TGI (HOP-18 NSCLC) greater than 100 µM. It also gave a TGI (U251 CNS) greater than 100 µM, a TGI (HCT-116 colon) greater than 100 µM and a TGI (HOP-62 NSCLC) greater than 100 µM. For the same compound, the TGI (XF 498 CNS) was greater than 100 µM, the TGI (LXFL 529 NSCLC) was greater than 100 µM and the TGI (UACC-62 melanoma) was greater than 100 µM. It also gave a TGI (OVCAR-4 ovarian) greater than 100 µM, a TGI (HCC-2998 colon) greater than 100 µM and a TGI (HL-60(TB) leukemia) greater than 100 µM. It also gave a TGI (IGROV1 ovarian) greater than 100 µM, a TGI (DMS 273 small cell lung) greater than 100 µM and a TGI (OVCAR-5 ovarian) greater than 100 µM. The TGI (RXF-631 renal) was greater than 100 µM, the TGI (HCT-15 colon) was greater than 100 µM and the TGI (NCI-H226 lung) was greater than 100 µM. The TGI (SF-295 CNS) was greater than 100 µM, the TGI (RPMI-8226 leukemia) was greater than 100 µM and the TGI (SN12C renal) was greater than 100 µM. The TGI (UO-31 renal) was greater than 100 µM, the TGI (UACC-257 melanoma) was greater than 100 µM and the TGI (CCRF-CEM leukemia) was greater than 100 µM. It also gave a TGI (HOP-92 NSCLC) of 92.8 µM, a TGI (NCI-H23 lung) greater than 100 µM and a TGI (TK-10 renal) greater than 100 µM. The TGI (SF-539 CNS) was greater than 100 µM, the TGI (OVCAR-8 ovarian) was greater than 100 µM and the TGI (NCI-H522 lung) was greater than 100 µM. The TGI (A498 renal) was greater than 100 µM, the TGI (KM12 colon) was greater than 100 µM and the TGI (KM20L2 colon) was greater than 100 µM.

— PubChem BioAssay (NCI)
